According to ChEMBL document CHEMBL5154916, “Multiparameter Optimization of Naphthyridine Derivatives as Selective α5-GABAA Receptor Negative Allosteric Modulators” (J Med Chem, 2022):
In brackets after ≈: the same amount, converted by molar mass. Activity calls are given as the source filed them. The rule behind the calls is not given here.

Legend:
Cytochrome P450 2D6 = Cytochrome P450 2D6 (Homo sapiens, UniProt P10635); test: Inhibition of CYP2D6 (unknown origin); assay type: ADME
[1] = Ratio of drug level in brain to plasma in Wistar rat at 3 mg/kg, po measured at 1.5 hr post dose; assay type: ADME, organism-based; conditions: brain and plasma, read-out: BPR
[2] = AUC (0 to infinity) in Wistar rat total plasma at 1 mg/kg, po by HPLC-MS/MS analysis; assay type: ADME, organism-based; set-up: time infinity, dose 1 mg/kg, route po
[3] = Ratio of drug level in brain to plasma in Wistar rat at 1 mg/kg, po or 1 mg/kg, iv by HPLC-MS/MS analysis; assay type: ADME, organism-based; conditions: brain and plasma, read-out: BPR
[4] = target: Voltage-gated inwardly rectifying potassium channel KCNH2 (Homo sapiens, UniProt Q12809); test: Inhibition of hERG expressed in CHO cells stably at -80 mV holding potential by automated patch clamp method; assay type: toxicity, cell-based
[5] = Bioavailability in Wistar rat total plasma at 1 mg/kg, iv by HPLC-MS/MS analysis; assay type: ADME, organism-based
[6] = target: T1, GABA-A receptor; alpha-1/beta-3/gamma-2 (Homo sapiens) (UniProt P14867+P18507+P28472); test: Negative allosteric modulation activity at human recombinant alpha1beta3gamma2 GABAA receptor stably expressed in HEK293 cells assessed as modulation at alpha5 subunit by Patch clamp method; assay type: cell-based; conditions: filed as negative allosteric modulator
[7] = Bioavailability in Wistar rat at 1 mg/kg,po or 1 mg/kg, iv by HPLC-MS/MS analysis; assay type: ADME, organism-based; conditions: in vivo
[8] = target: T2, GABA-A receptor; alpha-5/beta-3/gamma-2 (Homo sapiens) (UniProt P18507+P28472+P31644); test: Negative allosteric modulation activity at human recombinant alpha5beta3gamma2 GABAA receptor stably expressed in HEK293 cells assessed as modulation at alpha5 subunit at 1 uM by Patch clamp method; assay type: cell-based; conditions: filed as negative allosteric modulator
[9] = […] in po dosed Wistar rat assessed as NED by Irwin test; assay type: organism-based; conditions: in vivo, read-out: ED
[10] = Genotoxicity in Salmonella typhimurium up to 5000 ug/ml by Ames test; assay type: toxicity; conditions: salmonella enterica subsp. enterica serovar typhimurium; dose < 5000 µg/ml
[11] = […] in po dosed PTZ-induced seizure mouse model assessed as NOAEL by seizure test; assay type: organism-based; conditions: in vivo
Cytochrome P450 2C9 = Cytochrome P450 2C9 (Homo sapiens, UniProt P11712); test: Inhibition of CYP2C9 (unknown origin); assay type: ADME
Cytochrome P450 1A2 = target: T3, Cytochrome P450 1A2 (Homo sapiens, UniProt P05177); test: Inhibition of CYP1A2 (unknown origin); assay type: ADME
T3 sequence (P05177 whole entry): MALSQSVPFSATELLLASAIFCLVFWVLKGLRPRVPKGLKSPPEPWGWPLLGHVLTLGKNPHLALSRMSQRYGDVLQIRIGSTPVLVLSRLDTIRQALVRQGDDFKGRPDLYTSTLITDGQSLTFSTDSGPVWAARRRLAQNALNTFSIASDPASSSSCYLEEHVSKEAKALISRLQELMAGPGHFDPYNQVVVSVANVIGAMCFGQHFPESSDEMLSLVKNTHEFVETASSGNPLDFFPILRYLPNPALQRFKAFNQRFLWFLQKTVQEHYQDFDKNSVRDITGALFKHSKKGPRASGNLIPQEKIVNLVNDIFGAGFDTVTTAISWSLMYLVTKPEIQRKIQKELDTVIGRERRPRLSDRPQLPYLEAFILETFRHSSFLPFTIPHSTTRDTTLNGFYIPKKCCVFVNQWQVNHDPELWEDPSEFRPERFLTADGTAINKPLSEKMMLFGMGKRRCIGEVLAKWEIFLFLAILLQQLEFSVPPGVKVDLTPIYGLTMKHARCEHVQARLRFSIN

[12] = target: T2, GABA-A receptor; alpha-5/beta-3/gamma-2 (Homo sapiens); test: Negative allosteric modulation activity at human recombinant alpha5beta3gamma2 GABAA receptor stably expressed in HEK293 cells assessed as modulation at alpha5 subunit at 10 uM by Patch clamp method; assay type: cell-based; conditions: filed as negative allosteric modulator
[13] = Volume of distribution in Wistar rat plasma at 1 mg/kg, iv by HPLC-MS/MS analysis; assay type: ADME, organism-based
[14] = Cmax in Wistar rat total plasma at 1 mg/kg, po by HPLC-MS/MS analysis; assay type: ADME, organism-based; set-up: dose 1 mg/kg, route po
Rattus norvegicus [15] = test: Pro-cognitive activity in po dosed subchronic PCP-induced cognitive impairment associated schizophrenia Wistar rat model assessed as reversal of PCP-induced cognitive deficit administered 30 mins prior to T1 phase by NOR test; assay type: functional; conditions: 0.5 h, read-out: MED
[16] = Thermodynamic solubility of the compound at pH 7.4; assay type: physicochemical; conditions: buffer, read-out: Therm_solubility
[17] = target: T1, GABA-A receptor; alpha-1/beta-3/gamma-2 (Homo sapiens); test: Negative allosteric modulation activity at human recombinant alpha1beta3gamma2 GABAA receptor stably expressed in HEK293 cells assessed as modulation at alpha1 subunit at 10 uM by Patch clamp method; assay type: cell-based; conditions: filed as negative allosteric modulator
[18] = Cardiovascular toxicity in po dosed dog assessed as NOAEL; assay type: organism-based, Canis lupus familiaris; conditions: in vivo
[19] = Plasma level ratio in Wistar rat assessed as ratio between plasma concentration in PCP-induced toxicity Wistar rat model to plasma concentration in pro-cognitive activity for subchronic PCP-induced cognitive impairment associated schizophrenia Wistar rat model
Cytochrome P450 3A4 = Cytochrome P450 3A4 (Homo sapiens, UniProt P08684); test: Inhibition of CYP3A4 (unknown origin); assay type: ADME
[20] = Metabolic stability in Wistar rat liver microsomes assessed as intrinsic clearance at 2.5 uM; assay type: ADME, Microsome; conditions: read-out: CLH
Cytochrome P450 2C19 = Cytochrome P450 2C19 (Homo sapiens, UniProt P33261); test: Inhibition of CYP2C19 (unknown origin); assay type: ADME
Rattus norvegicus [21] = test: Pro-cognitive activity in po dosed neonatal PCP-impaired social recognition Wistar rat model assessed as time spent social recognition administered 30 min before acquisition by social recognition test; assay type: functional; conditions: 0.5 h, read-out: MED
[22] = Plasma protein binding in guinea pig; assay type: ADME, cell-free, Cavia porcellus; conditions: read-out: PPB (converted)
[23] = Plasma protein binding in rat; assay type: ADME, cell-free; conditions: read-out: PPB (converted)
[24] = Metabolic stability in guinea pig hepatocyte assessed as intrinsic clearance measured per 10^6 cells; assay type: ADME, cell-based, Cavia porcellus; conditions: hepatocytes, read-out: CLH
[25] = Apparent permeability in human Caco2 cells assessed as permeability damage ratio at 1 uM by HPLC-UV analysis; assay type: ADME, cell-based; conditions: caco-2, 1 µM
[26] = Bioavailability in male dog at 10 mg/kg, po or 3 mg/kg, iv by HPLC-MS/MS analysis; assay type: ADME, organism-based, Canis lupus familiaris; conditions: in vivo
[27] = Passive permeability in human Caco-2 cells assessed as permeability damage ratio at 10 uM by HPLC-UV analysis; assay type: ADME, cell-based; conditions: caco-2, 10 µM
[28] = Clearance in Wistar rat plasma at 1 mg/kg, iv by HPLC-MS/MS analysis; assay type: ADME, organism-based
[29] = AUC (0 to infinity) in Wistar rat total plasma at 1 mg/kg, iv by HPLC-MS/MS analysis; assay type: ADME, organism-based; set-up: time infinity, dose 1 mg/kg, route iv
Rattus norvegicus [30] = test: Pro-cognitive activity in neonatal PCP-impaired social recognition Wistar rat model assessed as time spent in recognition of new juveniles at 10 mg/kg, po administered 30 min before acquisition by social recognition test; assay type: functional, organism-based
[31] = Cardiovascular toxicity in po dosed guinea pig assessed as NOAEL; assay type: organism-based, Cavia porcellus; conditions: in vivo
[32] = Half life in Wistar rat total plasma at 1 mg/kg, iv by HPLC-MS/MS analysis; assay type: ADME, organism-based

Chain of Cytochrome P450 2C19 (P33261 whole entry): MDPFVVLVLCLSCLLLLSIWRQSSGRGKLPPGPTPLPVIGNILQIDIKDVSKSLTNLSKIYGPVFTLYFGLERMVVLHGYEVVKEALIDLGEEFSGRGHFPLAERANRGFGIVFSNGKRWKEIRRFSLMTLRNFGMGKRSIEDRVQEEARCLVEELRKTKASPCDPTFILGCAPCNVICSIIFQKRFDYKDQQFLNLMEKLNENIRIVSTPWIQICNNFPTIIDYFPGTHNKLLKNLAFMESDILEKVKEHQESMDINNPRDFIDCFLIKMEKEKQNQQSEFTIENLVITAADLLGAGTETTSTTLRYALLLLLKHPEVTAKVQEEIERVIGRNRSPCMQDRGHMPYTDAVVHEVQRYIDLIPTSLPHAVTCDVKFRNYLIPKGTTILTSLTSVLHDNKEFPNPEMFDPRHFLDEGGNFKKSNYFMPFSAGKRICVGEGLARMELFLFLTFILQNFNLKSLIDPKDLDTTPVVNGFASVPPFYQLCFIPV
Chain of Cytochrome P450 2D6 (P10635 whole entry): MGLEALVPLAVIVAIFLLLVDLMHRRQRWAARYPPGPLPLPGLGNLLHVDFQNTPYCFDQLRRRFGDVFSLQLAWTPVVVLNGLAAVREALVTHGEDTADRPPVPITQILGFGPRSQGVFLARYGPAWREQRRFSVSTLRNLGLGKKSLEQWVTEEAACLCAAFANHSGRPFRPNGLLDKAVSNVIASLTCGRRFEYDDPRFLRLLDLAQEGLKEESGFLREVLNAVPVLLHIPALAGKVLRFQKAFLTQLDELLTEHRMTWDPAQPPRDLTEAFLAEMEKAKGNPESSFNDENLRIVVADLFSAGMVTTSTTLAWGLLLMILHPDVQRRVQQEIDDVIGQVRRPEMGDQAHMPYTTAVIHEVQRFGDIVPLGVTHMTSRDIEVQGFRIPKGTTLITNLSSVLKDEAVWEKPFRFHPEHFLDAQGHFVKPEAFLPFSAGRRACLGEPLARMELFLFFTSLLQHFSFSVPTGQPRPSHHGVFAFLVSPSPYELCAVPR
Chain of Voltage-gated inwardly rectifying potassium channel KCNH2 (Q12809 whole entry): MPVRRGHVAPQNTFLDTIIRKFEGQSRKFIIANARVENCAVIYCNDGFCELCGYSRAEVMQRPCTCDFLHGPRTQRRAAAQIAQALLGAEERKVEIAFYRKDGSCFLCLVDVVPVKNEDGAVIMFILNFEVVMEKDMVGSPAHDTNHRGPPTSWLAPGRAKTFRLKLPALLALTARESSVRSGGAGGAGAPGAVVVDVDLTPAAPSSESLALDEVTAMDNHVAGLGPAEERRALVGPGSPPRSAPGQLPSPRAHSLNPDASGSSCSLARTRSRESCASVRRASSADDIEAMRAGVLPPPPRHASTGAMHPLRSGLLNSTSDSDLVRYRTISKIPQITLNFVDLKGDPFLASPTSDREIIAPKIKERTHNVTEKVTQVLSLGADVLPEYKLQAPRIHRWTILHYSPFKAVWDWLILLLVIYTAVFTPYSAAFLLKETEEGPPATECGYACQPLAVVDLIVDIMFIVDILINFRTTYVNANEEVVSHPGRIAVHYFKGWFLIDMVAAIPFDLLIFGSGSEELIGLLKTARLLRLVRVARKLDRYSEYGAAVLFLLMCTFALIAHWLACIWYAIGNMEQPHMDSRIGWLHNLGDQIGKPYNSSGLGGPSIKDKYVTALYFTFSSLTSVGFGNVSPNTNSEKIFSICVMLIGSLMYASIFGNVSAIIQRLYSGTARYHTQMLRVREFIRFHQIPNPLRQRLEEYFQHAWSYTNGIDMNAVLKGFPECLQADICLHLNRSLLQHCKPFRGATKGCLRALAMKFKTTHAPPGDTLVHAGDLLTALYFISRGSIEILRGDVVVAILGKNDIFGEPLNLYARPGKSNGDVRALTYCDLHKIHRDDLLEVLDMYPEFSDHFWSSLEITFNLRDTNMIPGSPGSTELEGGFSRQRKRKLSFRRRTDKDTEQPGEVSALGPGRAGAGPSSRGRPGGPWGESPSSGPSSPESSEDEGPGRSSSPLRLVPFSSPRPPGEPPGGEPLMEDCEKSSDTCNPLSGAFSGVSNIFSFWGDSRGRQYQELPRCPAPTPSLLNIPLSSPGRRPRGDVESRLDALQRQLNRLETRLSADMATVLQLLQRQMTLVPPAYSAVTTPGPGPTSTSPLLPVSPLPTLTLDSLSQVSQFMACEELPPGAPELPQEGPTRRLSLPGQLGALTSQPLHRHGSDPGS
Chain of Cytochrome P450 2C9 (P11712 whole entry): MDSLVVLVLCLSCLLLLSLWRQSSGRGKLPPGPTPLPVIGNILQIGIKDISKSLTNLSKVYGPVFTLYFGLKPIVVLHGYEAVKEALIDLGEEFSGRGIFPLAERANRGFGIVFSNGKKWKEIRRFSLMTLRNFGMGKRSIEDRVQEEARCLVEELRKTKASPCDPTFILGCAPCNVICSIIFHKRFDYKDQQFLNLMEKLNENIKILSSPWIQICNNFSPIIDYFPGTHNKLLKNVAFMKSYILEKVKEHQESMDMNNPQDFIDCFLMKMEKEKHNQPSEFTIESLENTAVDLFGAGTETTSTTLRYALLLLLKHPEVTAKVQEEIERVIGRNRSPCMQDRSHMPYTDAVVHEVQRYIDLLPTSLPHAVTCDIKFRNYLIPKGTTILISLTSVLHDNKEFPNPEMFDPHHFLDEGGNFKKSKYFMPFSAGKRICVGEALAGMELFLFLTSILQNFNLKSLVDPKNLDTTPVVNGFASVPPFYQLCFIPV
Chain of Cytochrome P450 3A4 (P08684 whole entry): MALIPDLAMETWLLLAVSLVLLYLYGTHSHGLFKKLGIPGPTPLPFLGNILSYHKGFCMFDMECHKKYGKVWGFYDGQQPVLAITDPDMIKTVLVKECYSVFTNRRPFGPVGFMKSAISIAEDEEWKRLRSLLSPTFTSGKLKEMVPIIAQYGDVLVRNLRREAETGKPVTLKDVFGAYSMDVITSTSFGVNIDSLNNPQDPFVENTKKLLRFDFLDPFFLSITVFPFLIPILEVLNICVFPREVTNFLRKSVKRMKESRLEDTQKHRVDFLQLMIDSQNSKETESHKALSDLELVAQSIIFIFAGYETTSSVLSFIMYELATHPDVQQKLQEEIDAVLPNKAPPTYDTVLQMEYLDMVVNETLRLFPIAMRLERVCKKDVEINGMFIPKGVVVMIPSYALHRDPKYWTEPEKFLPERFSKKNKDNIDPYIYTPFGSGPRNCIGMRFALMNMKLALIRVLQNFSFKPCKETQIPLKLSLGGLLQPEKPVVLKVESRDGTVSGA

Cc1onc(-c2ccc(F)cc2)c1COc1ccc2c(n1)CCN(C(=O)CS(C)(=O)=O)C2
IC50 (Cytochrome P450 2D6): > 50 µM | Kp at 1.5 h [1]: 6.3 | AUC(0-inf) [2]: 146 ng·h/mL | Kp [3]: 0.54 | IC50 [4]: 6.2 µM | bioavailability [5]: 35.8% | Activity [6]: -41% | bioavailability [7]: 35.8% | Activity [8]: -24% | NOAEL [9]: ≥ 300 mg/kg | Activity [10]: Non-Toxic | NOAEL [11]: ≥ 30 mg/kg | IC50 (Cytochrome P450 2C9): > 50 µM | IC50 (Cytochrome P450 1A2): > 50 µM | Activity [12]: -39% | Vd [13]: 1.9 L/kg | Cmax [14]: 115 ng/mL | minimal effective dose (Rattus norvegicus [15]): 3 mg/kg | solubility thermodynamic [16]: 0.081 µM (≈ 0.0372 µg/mL) | Activity [17]: -2% | NOAEL [18]: ≥ 70 mg/kg | Ratio [19]: 11 | IC50 (Cytochrome P450 3A4): > 50 µM | microsomal CLint at 2.5 µM [20]: 29 µL/min/mg | IC50 (Cytochrome P450 2C19): 14.6 µM | minimal effective dose (Rattus norvegicus [21]): 10 mg/kg | fraction unbound [22]: 0.023 | fraction unbound [23]: 0.04 | hepatocyte CLint [24]: 4 µL/min/1e6 cells | Ratio [25]: 0.93 | bioavailability [26]: 12.6% | Ratio [27]: 29 | clearance [28]: 41.3 mL/min/kg | AUC(0-inf) [29]: 407 ng·h/mL | Activity (Rattus norvegicus [30]): Active | NOAEL [31]: ≥ 100 mg/kg | half-life [32]: 31.8 min
